Data reported in PMC4356374, “Structural characterization of substrate and inhibitor binding to farnesyl pyrophosphate synthase from Pseudomonas aeruginosa” (Acta Crystallographica Section D: Biological Crystallography, 2015).

Assays:
[1] = molecular target: T1, farnesyl pyrophosphate synthase (PaFPPS, PA4043) (Pseudomonas aeruginosa, UniProt Q9HWY4); assay: X-ray crystal structure at […] Å (also with GPP, 3zou); DSF shift […] °C; no significant inhibition at […]; type: binding
T1 construct: gene ispA; full-length, 295 amino acids, His tag cleaved with TEV

[2] = molecular target: T2, farnesyl pyrophosphate synthase (PaFPPS, PA4043) (Pseudomonas aeruginosa, UniProt Q9HWY4); assay: turnover with GPP by the purified enzyme, pyrophosphatase-coupled malachite green assay (kcat […] s^-1; no inhibition implied); type: biochemical
T2 construct: gene ispA; full-length, 295 amino acids
T2 sequence (Q9HWY4 1-295): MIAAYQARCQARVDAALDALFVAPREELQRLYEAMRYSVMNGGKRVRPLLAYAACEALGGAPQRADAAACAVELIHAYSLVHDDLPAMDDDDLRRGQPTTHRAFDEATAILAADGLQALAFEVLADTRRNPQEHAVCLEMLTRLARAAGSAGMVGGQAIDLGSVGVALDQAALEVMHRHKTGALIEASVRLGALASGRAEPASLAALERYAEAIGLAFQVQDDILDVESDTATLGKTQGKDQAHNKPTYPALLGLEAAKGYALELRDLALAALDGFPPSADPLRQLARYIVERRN

[3] = molecular target: the molecule itself; assay: crystal structure; sitting-drop vapour diffusion, 25 mg/ml protein; native: 20% PEG 3350, 0.2 M NaF, 0.1 M bis-tris propane pH 6.5; asymmetric unit holds a dimer related by a twofold noncrystallographic axis; 1.55 A

O=C(O)CCn1c(=O)oc2ccccc21 [SPB02696, 3-[2-hydrozybenzo[d]oxazol-3(2H)-yl]propanoic acid]
X-ray crystal structure at 1.90 Å (also with GPP, 3zou); DSF shift 2.8 °C; no si [1]: we describe the details of the enzyme–ligand interactions for fragment hit SPB02696 (termed 6H6 in the deposited coordinate file)

C=C(C)CCO[P@@](=O)(O)OP(=O)(O)O [isopentenyl pyrophosphate]
turnover with GPP by the purified enzyme, pyrophosphatase-coupled malachite gree [2]: no reaction took place without both IPP and GPP being present

B1: farnesyl pyrophosphate synthase from Pseudomonas aeruginosa PAO1 (locus PA4043) (enzyme, UniProt Q9HWY4 1-295, looked up)
chain: T2 sequence (Q9HWY4 1-295)
notes: farnesyl pyrophosphate synthase, P. aeruginosa PAO1, locus PA4043; open reading frame amplified from the genome; protein of 295 amino acids; residues Ala227-Gly254 (loop-HI) disordered in all structures; Vector pNIC28-Bsa4 with N-terminal six-histidine tag and TEV site; the tag is cleaved in the purification; The ESI-MS mass of 34 017.5 Da was of the protein with the His tag; also called PaFPPS; …
stoichiometry N [3]: 2
